The values that follow come from US10226453B2, “3-(1H-indol-2-yl)-1H-pyrazolo[4,3-B]pyridines and therapeutic uses thereof” (Samumed, LLC, priority 2015, dated 2019).

For test [1], the system named is primary human fibroblasts derived from IPF patients (LL29 cells) treated with TGF-β1. As to the kind of experiment: Inhibition of the fibrotic process: αSMA staining in TGF-β1 treated primary human fibroblasts from IPF patients (LL29 cells). To be noted: Fibroblast, 96 h, TGF-β1 20 ng/mL, 4 days; for EC50: % αSMA positive cells. The class given is cell-based. Summed up: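 LL29 IPF-patient lung fibroblasts in 1% FBS F12 were given compounds (11-point, 10 μM to […], 0.1% DMSO) plus TGF-β1 20 ng/mL for 4 days at 37 °C. αSMA-positive fraction of live (SYTOX-negative) cells was imaged and normalized to TGF-β1/DMSO wells. EC50 by non-linear regression, or % inhibition at 10 μM if >10 μM.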

The test system of another test is SW480 colon cancer cells. As to the kind of experiment: Cell viability assay (CellTiter-Blue), SW480 colon cancer cells. It is filed as cell-based. To be noted: Homo sapiens, 96 h, four days; for EC50: CellTiter-Blue; for inhibition at 10 µM: given where EC50 >10 μM, read-out: percent inhibition at 10 μM. The procedure, abridged: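 SW480 cells (~2×10^3/well) exposed four days at 37 °C to 8-point 1:3 dilutions, 10 μM down to 0.0045 μM. Viability from resazurin reduction (CellTiter-Blue, ~3 h, Ex 560/Em 590); EC50 by non-linear regression, or percent inhibition at 10 μM where EC50 exceeds 10 μM.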

For the compound `CC(C)(C)C(=O)Nc1cncc(-c2ccc3[nH]nc(-c4cc5c(-c6cccc(F)c6)cccc5[nH]4)c3n2)c1` [Compound 8, N-(5-(3-(4-(3-Fluorophenyl)-1H-indol-2-yl)-1H-pyrazolo[4,3-b]pyridin-5-yl)pyridin-3-yl)pivalamide], the EC50 in test [1] came to 3670 nM. In the test on SW480 colon cancer cells, the EC50 is above 10000 nM and the inhibition at 10 µM turned out to be 20.9%.
For `CN(C)Cc1cncc(-c2ccc3[nH]nc(-c4cc5c(-c6ccc(F)cc6)cccc5[nH]4)c3n2)c1` [Compound 41, 1-(5-(3-(4-(4-Fluorophenyl)-1H-indol-2-yl)-1H-pyrazolo[4,3-b]pyridin-5-yl)pyridin-3-yl)-N,N-dimethylmethanamine], the values for the EC50 (in test [1]; in the test with SW480 colon cancer cells) were 544 nM and 1680 nM, respectively.
For the compound `Fc1ccc(-c2cccc3[nH]c(-c4n[nH]c5ccc(-c6cncnc6)nc45)cc23)cc1` [Compound 55, 3-(4-(4-Fluorophenyl)-1H-indol-2-yl)-5-(pyrimidin-5-yl)-1H-pyrazolo[4,3-b] pyridine], the response in test [1] was half-maximal at 890 nM (EC50). In the test with SW480 colon cancer cells, the concentration for a half-maximal effect (EC50) is above 10000 nM and the inhibition at 10 µM was 18.5%.
Consider `Fc1ccccc1-c1cccc2[nH]c(-c3n[nH]c4ccc(-c5cncc(CN6CCCCC6)c5)nc34)cc12` [Compound 71, 3-(4-(2-Fluorophenyl)-1H-indol-2-yl)-5-(5-(piperidin-1-ylmethyl)pyridin-3-yl)-1H-pyrazolo[4,3-b]pyridine], for which the EC50 in test [1] amounted to 725 nM; with SW480 colon cancer cells, 1060 nM.
The compound `Fc1ccccc1-c1cccc2[nH]c(-c3n[nH]c4ccc(-c5cncc(CNCc6ccccc6)c5)nc34)cc12` [Compound 80, N-Benzyl-1-(5-(3-(4-(2-fluorophenyl)-1H-indol-2-yl)-1H-pyrazolo[4,3-b]pyridin-5-yl)pyridin-3-yl)methanamine] displayed an EC50 in test [1] of 2490 nM. For the same compound, in the test on SW480 colon cancer cells, the EC50 was above 10000 nM and the inhibition at 10 µM turned out to be 18.5%.
For the compound `c1cncc(-c2ccc3[nH]nc(-c4cc5c(-c6cccnc6)cccc5[nH]4)c3n2)c1` [Compound 88, 5-(Pyridin-3-yl)-3-(4-(pyridin-3-yl)-1H-indol-2-yl)-1H-pyrazolo[4,3-b] pyridine], the EC50 in test [1] was determined as 88 nM; with SW480 colon cancer cells it was 775 nM.
The like results for `CN(C)Cc1cncc(-c2ccc3[nH]nc(-c4cc5c(-c6cccnc6)cccc5[nH]4)c3n2)c1` [Compound 97, N,N-Dimethyl-1-(5-(3-(4-(pyridin-3-yl)-1H-indol-2-yl)-1H-pyrazolo[4,3-b]pyridin-5-yl)pyridin-3-yl)methanamine] were, in that order, 451 nM and 801 nM.
In the case of `Nc1cncc(-c2ccc3[nH]nc(-c4cc5c(-c6ccncc6)cccc5[nH]4)c3n2)c1` [Compound 115, 5-(3-(4-(Pyridin-4-yl)-1H-indol-2-yl)-1H-pyrazolo[4,3-b]pyridin-5-yl) pyridin-3-amine], the EC50 came out at 41 nM in test [1] and 218 nM with SW480 colon cancer cells.
Turning to `Cc1ccncc1-c1ccc2[nH]nc(-c3cc4c(-c5ccncc5)cccc4[nH]3)c2n1` [Compound 117, 5-(4-Methylpyridin-3-yl)-3-(4-(pyridin-4-yl)-1H-indol-2-yl)-1H-pyrazolo [4,3-b]pyridine], the EC50 came out at 197 nM in test [1] and 696 nM in the test with SW480 colon cancer cells.
For `c1cc(-c2ccncc2)c2cc(-c3n[nH]c4ccc(-c5cncc(CN6CCCCC6)c5)nc34)[nH]c2c1` [Compound 127, 5-(5-(Piperidin-1-ylmethyl)pyridin-3-yl)-3-(4-(pyridin-4-yl)-1H-indol-2-yl)-1H-pyrazolo[4,3-b]pyridine] the same measures were 8900 nM and 1920 nM.
`c1cc(-c2ccncc2)c2cc(-c3n[nH]c4ccc(-c5cncc(CNCC6CCCC6)c5)nc34)[nH]c2c1` [Compound 137, 1-Cyclopentyl-N-((5-(3-(4-(pyridin-4-yl)-1H-indol-2-yl)-1H-pyrazolo[4,3-b]pyridin-5-yl)pyridin-3-yl)methyl)methanamine] registered an EC50 in test [1] of 701 nM. Further, in the test with SW480 colon cancer cells, the 50% effective concentration (EC50) is above 10000 nM and the inhibition at 10 µM was found to be 14.7%.
The like results for `c1ccc(-c2ccc3[nH]nc(-c4cc5c(-c6ccncc6)cccc5[nH]4)c3n2)nc1` [Compound 140, 5-(Pyridin-2-yl)-3-(4-(pyridin-4-yl)-1H-indol-2-yl)-1H-pyrazolo[4,3-b] pyridine] were, in that order, 520 nM, above 10000 nM and 33.4%.
Take `FC1(F)CCN(Cc2cncc(-c3ccc4[nH]nc(-c5cc6c(-c7ccccn7)cccc6[nH]5)c4n3)c2)C1` [Compound 166, 5-(5-((3,3-Difluoropyrrolidin-1-yl)methyl)pyridin-3-yl)-3-(4-(pyridin-2-yl)-1H-indol-2-yl)-1H-pyrazolo[4,3-b]pyridine]: the EC50 in test [1] was found to be 164 nM; with SW480 colon cancer cells, 1180 nM.
For the compound `c1ccc(-c2cccc3[nH]c(-c4n[nH]c5ccc(-c6cncnc6)nc45)cc23)nc1` [Compound 167, 3-(4-(Pyridin-2-yl)-1H-indol-2-yl)-5-(pyrimidin-5-yl)-1H-pyrazolo[4,3-b] pyridine], the midpoint of the response in test [1], the EC50, lay at 201 nM. In the test with SW480 colon cancer cells, the EC50 was above 10000 nM and the inhibition at 10 µM was determined as 13.8%.
As for `CCCCC(=O)Nc1cncc(-c2ccc3[nH]nc(-c4cc5c(N6CCCCC6)cccc5[nH]4)c3n2)c1` [Compound 187, N-(5-(3-(4-(Piperidin-1-yl)-1H-indol-2-yl)-1H-pyrazolo[4,3-b]pyridin-5-yl)pyridin-3-yl)pentanamide], the EC50 in test [1] is 2040 nM; in the test with SW480 colon cancer cells, 4440 nM.
On to `c1ccc(-c2ccc3[nH]nc(-c4cc5c(N6CCCCC6)cccc5[nH]4)c3n2)nc1` [Compound 196, 3-(4-(Piperidin-1-yl)-1H-indol-2-yl)-5-(pyridin-2-yl)-1H-pyrazolo[4,3-b] pyridine], for which the EC50 (in test [1]; with SW480 colon cancer cells) was above 10000 nM throughout. The inhibition at 10 µM in test [1] (given where EC50 >10 μM, 10 μM, read-out: percent inhibition at 10 μM) amounted to 5.2%; in the test on SW480 colon cancer cells, 10.4%.
For `Cc1ccncc1-c1ccc2[nH]nc(-c3cc4c(N5CCN(C)CC5)cccc4[nH]3)c2n1` [Compound 229, 3-(4-(4-Methylpiperazin-1-yl)-1H-indol-2-yl)-5-(4-methylpyridin-3-yl)-1H-pyrazolo[4,3-b]pyridine], the EC50 in test [1] was found to be 4920 nM; in the test on SW480 colon cancer cells, 4740 nM.
The like results for `CN1CCN(c2cccc3[nH]c(-c4n[nH]c5ccc(-c6cncc(NC(=O)c7ccccc7)c6)nc45)cc23)CC1` [Compound 235, N-(5-(3-(4-(4-Methylpiperazin-1-yl)-1H-indol-2-yl)-1H-pyrazolo[4,3-b]pyridin-5-yl)pyridin-3-yl)benzamide] were, in that order, 1690 nM and 3910 nM.
In test [1], `CN1CCN(c2cccc3[nH]c(-c4n[nH]c5ccc(-c6cncnc6)nc45)cc23)CC1` [Compound 251, 3-(4-(4-Methylpiperazin-1l-yl)-1H-indol-2-yl)-5-(pyrimidin-5-yl)-1H-pyrazolo[4,3-b]pyridine] yielded an EC50 of 7790 nM. Also, in the test with SW480 colon cancer cells, the EC50 is above 10000 nM and the inhibition at 10 µM is 15.3%.
Regarding `c1cncc(-c2ccc3[nH]nc(-c4cc5ccccc5[nH]4)c3n2)c1` [Compound 256, 3-(1H-Indol-2-yl)-5-(pyridin-3-yl)-1H-pyrazolo[4,3-b]pyridine], the midpoint of the response in test [1], the EC50, lay at 1140 nM. In the test on SW480 colon cancer cells, the EC50 is above 10000 nM and the inhibition at 10 µM turned out to be 37.6%.
For the compound `CN(C)Cc1cncc(-c2ccc3[nH]nc(-c4cc5ccccc5[nH]4)c3n2)c1` [Compound 265, 1-(5-(3-(1H-Indol-2-yl)-1H-pyrazolo[4,3-b]pyridin-5-yl)pyridin-3-yl)-N,N-dimethylmethanamine], the EC50 was found to be 521 nM in test [1] and 2940 nM with SW480 colon cancer cells.
For the compound `FC1(F)CCN(Cc2cncc(-c3ccc4[nH]nc(-c5cc6ccccc6[nH]5)c4n3)c2)C1` [Compound 278, 5-(5-((3,3-Difluoropyrrolidin-1-yl)methyl)pyridin-3-yl)-3-(1H-indol-2-yl)-1H-pyrazolo[4,3-b]pyridine], the EC50 in test [1] came out at 90 nM; in the test on SW480 colon cancer cells, 590 nM.
With `CN(C)c1cncc(-c2ccc3[nH]nc(-c4cc5c(-c6ccoc6)cccc5[nH]4)c3n2)c1` [Compound 315, 5-(3-(4-(Furan-3-yl)-1H-indol-2-yl)-1H-pyrazolo[4,3-b]pyridin-5-yl)-N,N-dimethylpyridin-3-amine], the EC50 turned out to be 631 nM in test [1] and 1910 nM in the test with SW480 colon cancer cells.
Turning to `c1cc(-c2ccoc2)c2cc(-c3n[nH]c4ccc(-c5cncc(CNCC6CCCC6)c5)nc34)[nH]c2c1` [Compound 333, 1-Cyclopentyl-N-((5-(3-(4-(furan-3-yl)-1H-indol-2-yl)-1H-pyrazolo[4,3-b]pyridin-5-yl)pyridin-3-yl)methyl)methanamine], the values for the EC50 (in test [1]; in the test with SW480 colon cancer cells) were 955 nM and 3450 nM, respectively.
The compound `FC1(F)CCN(Cc2cncc(-c3ccc4[nH]nc(-c5cc6c(-c7cccs7)cccc6[nH]5)c4n3)c2)C1` [Compound 362, 5-(5-((3,3-Difluoropyrrolidin-1-yl)methyl)pyridin-3-yl)-3-(4-(thiophen-2-yl)-1H-indol-2-yl)-1H-pyrazolo[4,3-b]pyridine] gave an EC50 in test [1] of 1290 nM. In the test with SW480 colon cancer cells, the EC50 is above 10000 nM and the inhibition at 10 µM is 15.3%.
For the compound `CN(C)CCNc1cc(F)cc(-c2cccc3[nH]c(-c4n[nH]c5ccc(-c6cccnc6)nc45)cc23)c1` [Compound 452, N^1-(3-Fluoro-5-(2-(5-(pyridin-3-yl)-1H-pyrazolo[4,3-b]pyridin-3-yl)-1H-indol-4-yl)phenyl)-N^2,N^2-dimethylethane-1,2-diamine], the values for the EC50 (in test [1]; in the test on SW480 colon cancer cells) were 38 nM and 290 nM, respectively.
